According to patent publication US8952024B2, “Herbicidal pyrimidone derivatives” (E I du Pont de Nemours and Company, priority 2009, dated 2015):

How the values were obtained:
Assay type in all cases: in vivo
[1] = system: large crabgrass (Digitaria sanguinalis); test: Test B pre-/postemergence plant response
Summary of the method: (§1)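 Each species received compound formulated in non-phytotoxic solvent with surfactant, either at planting into a loam and sand blend or as a foliar spray once plants reached 2 to 18 cm in peat-based medium. Plants stayed in the greenhouse 13 to 15 days before visual evaluation against controls, scored 0 (no effect) to 100 (complete control).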

[2] = system: lambsquarters (Chenopodium album); test: Test B pre-/postemergence plant response
Summary of the method: as §1

wild oat (Avena fatua) = test: Test B pre-/postemergence plant response
Summary of the method: as §1

corn (Zea mays) = test: Test B pre-/postemergence plant response
Summary of the method: as §1

[3] = system: woolly cupgrass (Eriochloa villosa); test: Test B pre-/postemergence plant response
Summary of the method: as §1

[4] = system: blackgrass (Alopecurus myosuroides); test: Test B pre-/postemergence plant response
Summary of the method: as §1

[5] = system: velvetleaf (Abutilon theophrasti); test: Test B pre-/postemergence plant response
Summary of the method: as §1

[6] = system: johnsongrass (Sorghum halepense); test: Test B pre-/postemergence plant response
Summary of the method: as §1

[7] = system: ragweed (common ragweed, Ambrosia elatior); test: Test B pre-/postemergence plant response
Summary of the method: as §1

soybean (Glycine max) = test: Test B pre-/postemergence plant response
Summary of the method: as §1

[8] = system: bermudagrass (Cynodon dactylon); test: Test B pre-/postemergence plant response
Summary of the method: as §1

[9] = system: Italian ryegrass (Lolium multiflorum); test: Test B pre-/postemergence plant response
Summary of the method: as §1

[10] = system: yellow nutsedge (Cyperus esculentus); test: Test B pre-/postemergence plant response
Summary of the method: as §1

[11] = system: Surinam grass (Brachiaria decumbens); test: Test B pre-/postemergence plant response
Summary of the method: as §1

[12] = system: chickweed (Stellaria media); test: Test B postemergence plant response
Summary of the method: (§2)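 Plants grown in peat/vermiculite medium were sprayed postemergence at 2–18 cm height (1- to 4-leaf stage). After 13–15 days in the greenhouse, response was rated visually against untreated controls on a 0–100 scale (0 no effect, 100 complete control).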

[13] = system: winter barley (Hordeum vulgare); test: Test B postemergence plant response
Summary of the method: as §2

[14] = system: windgrass (Apera spica-venti); test: Test B postemergence plant response
Summary of the method: as §2

[15] = system: canarygrass (Phalaris minor); test: Test B postemergence plant response
Summary of the method: as §2

[16] = 31 g ai/ha, postemergence, scale 0 to 100, 0 is no effect, 100 is complete control
[17] = 250 g ai/ha, Preemergence, 0 to 100 scale
[18] = Postemergence, 62 g ai/ha, scale 0 (no effect) to 100 (complete control), 13 to 15 days
[19] = Postemergence, 125 g ai/ha, visual rating after 13 to 15 days, scale 0 (no effect) to 100 (complete control)
[20] = Postemergence, 250 g ai/ha, scale 0 to 100 (0 no effect, 100 complete control)
[21] = Preemergence, 31 g ai/ha, scale 0 to 100 (0 no effect, 100 complete control)
[22] = Preemergence, 62 g ai/ha, scale 0 to 100, 0 no effect, 100 complete control
[23] = Preemergence, 125 g ai/ha, scale 0 to 100, 0 no effect, 100 complete control

O=C1CCCC(O)=C1C(=O)c1cnc(-c2cccs2)n(-c2ccccc2)c1=O [Compound 66]
20: Plant response rating, Bermudagrass [8, 21]
98: Plant response rating, Lambsquarters [2, 21] | Plant response rating, Lambsquarters [2, 22] | Plant response rating, Lambsquarters [2, 23] | Plant response rating, Velvetleaf [5, 19] | Plant response rating, Johnsongrass [6, 17] | Plant response rating, Soybean (soybean (Glycine max); [19]) | Plant response rating, Soybean (soybean (Glycine max); [20]) | Plant response rating, Bermudagrass [8, 17] | Plant response rating, Bermudagrass [8, 23] | Plant response rating, Surinam Grass [11, 20] | Plant response rating, Chickweed [12, 20]
100: Plant response rating, Crabgrass, Large [1, 17] | Plant response rating, Lambsquarters [2, 17] | Plant response rating, Lambsquarters [2, 20] | Plant response rating, Velvetleaf [5, 20]
45: Plant response rating, Johnsongrass [6, 16] | Plant response rating, Ragweed [7, 23] | Plant response rating, Nutsedge, Yellow [10, 18]
85: Plant response rating, Crabgrass, Large [1, 22] | Plant response rating, Velvetleaf [5, 16] | Plant response rating, Johnsongrass [6, 23] | Plant response rating, Nutsedge, Yellow [10, 23] | Plant response rating, Surinam Grass [11, 19] | Plant response rating, Chickweed [12, 18]
40: Plant response rating, Cupgrass, Woolly [3, 16] | Plant response rating, Cupgrass, Woolly [3, 18] | Plant response rating, Cupgrass, Woolly [3, 22]
90: Plant response rating, Velvetleaf [5, 18] | Plant response rating, Surinam Grass [11, 23]
65: Plant response rating, Crabgrass, Large [1, 19] | Plant response rating, Johnsongrass [6, 19] | Plant response rating, Johnsongrass [6, 20] | Plant response rating, Nutsedge, Yellow [10, 19] | Plant response rating, Surinam Grass [11, 16]
0: Plant response rating, Oat, Wild (wild oat (Avena fatua); [16]) | Plant response rating, Oat, Wild (wild oat (Avena fatua); [18]) | Plant response rating, Oat, Wild (wild oat (Avena fatua); [21]) | Plant response rating, Oat, Wild (wild oat (Avena fatua); [22]) | Plant response rating, Oat, Wild (wild oat (Avena fatua); [23]) | Plant response rating, Corn (corn (Zea mays); [17]) | Plant response rating, Corn (corn (Zea mays); [21]) | Plant response rating, Corn (corn (Zea mays); [22]) | Plant response rating, Corn (corn (Zea mays); [23]) | Plant response rating, Blackgrass [4, 21] | Plant response rating, Blackgrass [4, 22] | Plant response rating, Johnsongrass [6, 21] | Plant response rating, Ragweed [7, 16] | Plant response rating, Ragweed [7, 21] | Plant response rating, Ragweed [7, 22] | Plant response rating, Ryegrass, Italian [9, 16] | Plant response rating, Ryegrass, Italian [9, 18] | Plant response rating, Ryegrass, Italian [9, 21] | Plant response rating, Ryegrass, Italian [9, 22] | Plant response rating, Ryegrass, Italian [9, 23] | Plant response rating, Barley [13, 16] | Plant response rating, Barley [13, 18] | Plant response rating, Barley [13, 19] | Plant response rating, Barley [13, 20] | Plant response rating, Canarygrass [15, 16] | Plant response rating, Canarygrass [15, 18] | Plant response rating, Canarygrass [15, 19] | Plant response rating, Canarygrass [15, 20]
25: Plant response rating, Corn (corn (Zea mays); [16]) | Plant response rating, Cupgrass, Woolly [3, 21] | Plant response rating, Ragweed [7, 19] | Plant response rating, Nutsedge, Yellow [10, 16]
95: Plant response rating, Crabgrass, Large [1, 23] | Plant response rating, Lambsquarters [2, 16] | Plant response rating, Lambsquarters [2, 18] | Plant response rating, Lambsquarters [2, 19] | Plant response rating, Velvetleaf [5, 23] | Plant response rating, Soybean (soybean (Glycine max); [16]) | Plant response rating, Soybean (soybean (Glycine max); [18]) | Plant response rating, Bermudagrass [8, 19] | Plant response rating, Bermudagrass [8, 20] | Plant response rating, Chickweed [12, 19]
15: Plant response rating, Blackgrass [4, 20]
5: Plant response rating, Oat, Wild (wild oat (Avena fatua); [19]) | Plant response rating, Blackgrass [4, 16] | Plant response rating, Blackgrass [4, 17] | Plant response rating, Blackgrass [4, 23] | Plant response rating, Ryegrass, Italian [9, 19]
50: Plant response rating, Crabgrass, Large [1, 16]
80: Plant response rating, Velvetleaf [5, 21] | Plant response rating, Velvetleaf [5, 22] | Plant response rating, Bermudagrass [8, 22] | Plant response rating, Surinam Grass [11, 22] | Plant response rating, Chickweed [12, 16] | Plant response rating, Windgrass [14, 20]
75: Plant response rating, Corn (corn (Zea mays); [20]) | Plant response rating, Cupgrass, Woolly [3, 17] | Plant response rating, Cupgrass, Woolly [3, 20]
55: Plant response rating, Crabgrass, Large [1, 18] | Plant response rating, Corn (corn (Zea mays); [18]) | Plant response rating, Johnsongrass [6, 22]
10: Plant response rating, Oat, Wild (wild oat (Avena fatua); [20]) | Plant response rating, Blackgrass [4, 18] | Plant response rating, Blackgrass [4, 19] | Plant response rating, Ragweed [7, 18] | Plant response rating, Ryegrass, Italian [9, 20] | Plant response rating, Nutsedge, Yellow [10, 21]
70: Plant response rating, Crabgrass, Large [1, 20] | Plant response rating, Crabgrass, Large [1, 21] | Plant response rating, Corn (corn (Zea mays); [19]) | Plant response rating, Bermudagrass [8, 16] | Plant response rating, Bermudagrass [8, 18] | Plant response rating, Nutsedge, Yellow [10, 20] | Plant response rating, Surinam Grass [11, 18] | Plant response rating, Windgrass [14, 19]
30: Plant response rating, Nutsedge, Yellow [10, 22]
35: Plant response rating, Surinam Grass [11, 21]
60: Plant response rating, Cupgrass, Woolly [3, 19] | Plant response rating, Cupgrass, Woolly [3, 23] | Plant response rating, Johnsongrass [6, 18] | Plant response rating, Ragweed [7, 20] | Plant response rating, Windgrass [14, 16] | Plant response rating, Windgrass [14, 18]
